Measurements published in patent US11877990B1, “Agmatine compositions for treatment of osteoarthritis” (priority 2022, dated 2024).

Key:
[1] = system: bilateral knee osteoarthritis; assay: Agmatine Administration Case 1: self-treatment and self-rating of knee osteoarthritis symptoms (WOMAC Index, VAS); type: in vivo, human; details: for VAS Score / WOMAC (% Total Score): treatment duration 12-14 months
Description: Two study participants, each suffering from bilateral knee osteoarthritis, were consecutively self-treated as shown in the following Table 1: Treatment started with acetaminophen (as TYLENOL®, considered standard drug treatment) used as a rescue medication for the duration of their symptoms, 12 or 14 months as needed, followed by a 12-week treatment period of acetaminophen plus agmatine (taken as the G-AGMATINE® brand of agmatine sulfate). The participants self-rated their OA symptoms according to the WOMAC (Western Ontario and McMaster Universities Osteoarthritis) Index and according to the Visual Analog (pain) Scale (VAS). They had bilateral symptoms of mild-to-moderate chronic, frequent knee pain typical of knee OA according to WOMAC, score range of >25 and <100. Table 1 presents a summary of the participants' characteristics and treatment assessment at the indicated follow-up times. For the entire acetaminophen-only treatment, the dosage was 500 milligrams per caplet, and the frequency was two caplets every six hours, as needed (i.e., 1000 mg per six-hour period). For the acetaminophen plus agmatine regimen, the participants' initial dosage of acetaminophen was 500 milligrams per caplet with an initial dosage of agmatine of 450 milligrams per capsule. While the frequency of acetaminophen dosage for both participants remained two caplets every six hours, the frequency of the agmatine capsules was six capsules daily (i.e., 2,700 mg per day). […] Participant 1 eliminated acetaminophen after six weeks, and participant 2 eliminated acetaminophen after eight weeks of treatment. Thereafter, the participants were taking only agmatine and reduced the quantity of agmatine by one third (i.e., a regimen of 1,800 mg per day).

[2] = system: bilateral knee osteoarthritis; assay: Agmatine Administration Case 2: consecutive self-treatment with acetaminophen, GCM formulation and agmatine (VAS, WOMAC); type: in vivo, human; details: agmatine taken with acetaminophen and with acetaminophen/GCM formulation
Description: In a second study, four participants had bilateral symptoms of mild-to-moderate chronic, frequent knee pain typical of knee osteoarthritis according to a WOMAC Index score range of >25 and <100. They are compared in Table 2. Participants began taking acetaminophen (as TYLENOL®) as needed over the course of the symptom duration: Referring to FIG. 1, the four participants self-treated consecutively as follows: starting with Acetaminophen (as TYLENOL®, considered a standard drug treatment) used as a rescue medication for the duration of their symptoms for 4 to 6 months, followed by a sixty-day treatment period with acetaminophen plus a GCM formulation (i.e., glucosamine HCl, chondroitin sulfate, and methylsulfonylmethane (MSM)). The GCM formulation was followed by sixty-day period using a combination comprising acetaminophen, the GCM formulation, and agmatine (taken as the G-AGMATINE® brand of agmatine sulfate). […] Referring to FIG. 3, changes in the WOMAC ratings are shown, expressed as a percentage of total scores, at the specified time intervals after initiation of each of the acetaminophen (labeled “acet in the figure), acetaminophen and GCM formulation, and the combination acetaminophen/GCM formulation/agmatine treatment regimens. […]

[3] = humans, ingested; cited from earlier work

Q: With `CC(=O)Nc1ccc(O)cc1` [Acetaminophen] as the compound, how does the “VAS Score” value ([1]; Participant #1, acetaminophen as needed) read?
A: 6.0

Q: What about the “WOMAC (% Total Score)” value ([1]; Participant #1, acetaminophen as needed (entry two)) of the same compound?
A: 83.3 % Total Score

Q: What about the “WOMAC (% Total Score)” value ([1]; Participant #2 (person one), acetaminophen as needed) of the same compound?
A: 85.4 % Total Score

Q: What about the “VAS Score” value ([1]; Participant #2, acetaminophen as needed) of the same compound?
A: 6.5

Q: What does the source list for `N=C(N)NCCCCN` [Agmatine]?
A: Effect on improving OA symptoms (in words) [2]: unexpected synergistic effect; Effect on OA symptoms (in words) ([1]; agmatine taken with acetaminophen, two participants): dramatic improvement in OA symptoms; apparent blood half-life [3]: about two
